Measured values reported in PubChem BioAssay AID276 (DTP/NCI, 2004).
Where “and” joins values, the source holds several entries; their conditions need not be identical. Equal entries are not always repeated. Inconclusive results and toxic doses are left out.

Tested on: B6C3F1 mice, Lewis lung carcinoma iv, survival T/C
Experiment: NCI In Vivo Anticancer Drug Screen. Data for tumor model Lewis Lung Carcinoma (intravenous) in B6C3F1 mice
Conditions: endpoint: median survival time, schedule: Q01DX009 (ip), higher = longer survival
Procedure: The antitumor activity of compounds was measured in mice bearing transplantable tumors. Survival or tumor size were measured and the results are expressed as the measurement made in the treated group (T) divided by the measurement made in the vehicle treated control group (C). The tumor model used in this assay is Lewis Lung Carcinoma (intravenous) in B6C3F1 mice

[1] = dose: 6.25 mg/kg/injection, vehicle: saline
[2] = dose: 12.5 mg/kg/injection, vehicle: saline
[3] = dose: 25.0 mg/kg/injection, vehicle: saline
[4] = dose: 50.0 mg/kg/injection, vehicle: saline
[5] = dose: 100.0 mg/kg/injection, vehicle: saline
[6] = dose: 200.0 mg/kg/injection, vehicle: saline
[7] = dose: 0.12 mg/kg/injection, vehicle: saline
[8] = dose: 0.25 mg/kg/injection, vehicle: saline
[9] = dose: 0.5 mg/kg/injection, vehicle: saline
[10] = dose: 12.5 mg/kg/injection, vehicle: saline with Tween-80
[11] = dose: 25.0 mg/kg/injection, vehicle: saline with Tween-80
[12] = dose: 50.0 mg/kg/injection, vehicle: saline with Tween-80
[13] = dose: 100.0 mg/kg/injection, vehicle: saline with Tween-80
[14] = dose: 200.0 mg/kg/injection, vehicle: saline with Tween-80
[15] = dose: 6.25 mg/kg/injection, vehicle: saline with Tween-80

## C[n+]1c(-c2cccc3ccccc23)c2cc(N)ccc2c2ccccc21
dose: 3.12 mg/kg/injection, vehicle: saline
  T/C: 94 % of control
[1]
  T/C: 90 % of control

## O=c1n(CC2CO2)c(=O)n(CC2CO2)n1CC1CO1 (centres undefined)
[1]
  T/C: 100 % of control
[2]
  T/C: 108 % of control
[3]
  T/C: 108 % of control

## CCc1ncnc2cc(OCC3CO3)c(OC)cc12 (centres undefined)
dose: 3.13 mg/kg/injection, vehicle: saline
  T/C: 98 % of control
[1]
  T/C: 100 % of control and 106 % of control
[2]
  T/C: 102 % of control and 104 % of control
[3]
  T/C: 117 % of control and 118 % of control

## C=CCc1cn(C2CC(O)C(CO)O2)c(=O)[nH]c1=O (centres undefined)
[2]
  T/C: 100 % of control
[3]
  T/C: 88 % of control
[4]
  T/C: 87 % of control
[5]
  T/C: 100 % of control
[6]
  T/C: 96 % of control
dose: 400.0 mg/kg/injection, vehicle: saline
  T/C: 98 % of control

## CC1OC(OC2CC(O)(C(=O)CO)Cc3c(O)c4c(c(O)c32)C(=O)c2ccccc2C4=O)CC(N)C1O (centres undefined)
dose: 0.06 mg/kg/injection, vehicle: water
  T/C: 110 % of control
dose: 0.12 mg/kg/injection, vehicle: other
  T/C: 105 % of control
[7]
  T/C: 108 % of control
dose: 0.12 mg/kg/injection, vehicle: water
  T/C: 122 % of control
dose: 0.25 mg/kg/injection, vehicle: other
  T/C: 113 % of control
[8]
  T/C: 103 % of control
dose: 0.25 mg/kg/injection, vehicle: water
  T/C: 112 % of control
[9]
  T/C: 110 % of control
dose: 0.5 mg/kg/injection, vehicle: water
  T/C: 120 % of control
dose: 1.0 mg/kg/injection, vehicle: water
  T/C: 173 % of control

## O=C(Nc1cc(Cl)ccc1C(=O)O)c1cccc(C[n+]2ccccc2)c1
[10]
  T/C: 107 % of control
[11]
  T/C: 102 % of control
[12]
  T/C: 92 % of control
[13]
  T/C: 95 % of control
[14]
  T/C: 100 % of control and 102 % of control

## CC(C)(C)C1CCCCC1
dose: 12.5 mg/kg/injection, vehicle: Klucel (hydroxypropylcellulose) (HPC)
  T/C: 92 % of control
dose: 25.0 mg/kg/injection, vehicle: Klucel (hydroxypropylcellulose) (HPC)
  T/C: 93 % of control
dose: 50.0 mg/kg/injection, vehicle: Klucel (hydroxypropylcellulose) (HPC)
  T/C: 108 % of control
dose: 100.0 mg/kg/injection, vehicle: Klucel (hydroxypropylcellulose) (HPC)
  T/C: 101 % of control
dose: 200.0 mg/kg/injection, vehicle: Klucel (hydroxypropylcellulose) (HPC)
  T/C: 103 % of control
dose: 400.0 mg/kg/injection, vehicle: Klucel (hydroxypropylcellulose) (HPC)
  T/C: 96 % of control

## CCn1cnc2c(=S)nc[nH]c21
dose: 12.0 mg/kg/injection, vehicle: saline
  T/C: 100 % of control
[3]
  T/C: 99 % of control
[4]
  T/C: 104 % of control

## CCCC(=O)O
[2]
  T/C: 123 % of control
[3]
  T/C: 109 % of control
[4]
  T/C: 114 % of control
[5]
  T/C: 106 % of control
[6]
  T/C: 98 % of control

## CN(C)CCN1C(=O)c2cccc3cc(N)cc(c23)C1=O
dose: 1.0 mg/kg/injection, vehicle: saline with Tween-80
  T/C: 115 % of control
dose: 2.0 mg/kg/injection, vehicle: saline with Tween-80
  T/C: 106 % of control
dose: 4.0 mg/kg/injection, vehicle: saline with Tween-80
  T/C: 111 % of control
dose: 8.0 mg/kg/injection, vehicle: saline with Tween-80
  T/C: 119 % of control

## BrCCC1(CCBr)CCCCC1
dose: 50.0 mg/kg/injection, vehicle: water
  T/C: 104 % of control
dose: 100.0 mg/kg/injection, vehicle: water
  T/C: 103 % of control
dose: 200.0 mg/kg/injection, vehicle: water
  T/C: 98 % of control
dose: 400.0 mg/kg/injection, vehicle: water
  T/C: 96 % of control

## CCCC(=O)O.CCCC(=O)O.CCCC(=O)O.CCCC(=O)O.[Rh].[Rh]
dose: 0.03 mg/kg/injection, vehicle: saline + alcohol
  T/C: 95 % of control
dose: 0.06 mg/kg/injection, vehicle: saline + alcohol
  T/C: 97 % of control and 100 % of control
dose: 0.12 mg/kg/injection, vehicle: saline + alcohol
  T/C: 93 % of control and 100 % of control
dose: 0.25 mg/kg/injection, vehicle: saline + alcohol
  T/C: 91 % of control and 102 % of control
dose: 0.5 mg/kg/injection, vehicle: saline + alcohol
  T/C: 92 % of control and 97 % of control
dose: 1.0 mg/kg/injection, vehicle: saline + alcohol
  T/C: 91 % of control and 96 % of control

## O=c1[nH]cccc1O
dose: 16.0 mg/kg/injection, vehicle: saline with Tween-80
  T/C: 98 % of control
dose: 32.0 mg/kg/injection, vehicle: saline with Tween-80
  T/C: 94 % of control
dose: 64.0 mg/kg/injection, vehicle: saline with Tween-80
  T/C: 103 % of control
dose: 256.0 mg/kg/injection, vehicle: saline with Tween-80
  T/C: 101 % of control

## C/C(=N\NC(=S)N1CCN(c2ccccn2)CC1)c1ccccn1
dose: 6.25 mg/kg/injection, vehicle: water
  T/C: 109 % of control
dose: 12.5 mg/kg/injection, vehicle: water
  T/C: 104 % of control
dose: 25.0 mg/kg/injection, vehicle: water
  T/C: 113 % of control

## Cn1cnc([N+](=O)[O-])c1Sc1ncn[nH]1
[2]
  T/C: 104 % of control
[3]
  T/C: 111 % of control
[4]
  T/C: 124 % of control
[5]
  T/C: 116 % of control

## O=C1CN(Cc2ccc3c(c2)OCO3)NO1
[15]
  T/C: 104 % of control and 109 % of control
[10]
  T/C: 106 % of control and 87 % of control
[11]
  T/C: 104 % of control and 123 % of control
[12]
  T/C: 104 % of control and 111 % of control
[13]
  T/C: 123 % of control and 86 % of control

## CC1(C)CC1(Br)Br
[15]
  T/C: 99 % of control
[10]
  T/C: 96 % of control
[11]
  T/C: 99 % of control
[12]
  T/C: 100 % of control
[13]
  T/C: 115 % of control
[14]
  T/C: 100 % of control

## COc1cc2c(c(OC)c1OC)-c1ccc(OC)c(=O)cc1[C@@H](NC(C)=O)CC2
dose: 0.06 mg/kg/injection, vehicle: saline
  T/C: 108 % of control
[7]
  T/C: 92 % of control
dose: 0.19 mg/kg/injection, vehicle: saline
  T/C: 99 % of control
[8]
  T/C: 100 % of control
dose: 0.39 mg/kg/injection, vehicle: saline
  T/C: 104 % of control
[9]
  T/C: 93 % of control
dose: 0.78 mg/kg/injection, vehicle: saline
  T/C: 104 % of control
dose: 1.0 mg/kg/injection, vehicle: saline
  T/C: 100 % of control
dose: 2.0 mg/kg/injection, vehicle: saline
  T/C: 112 % of control

## CCOC(=O)CNC(=O)CCCCSc1ncnc2nc[nH]c12
dose: 40.0 mg/kg/injection, vehicle: Klucel (hydroxypropylcellulose) (HPC)
  T/C: 101 % of control
dose: 80.0 mg/kg/injection, vehicle: Klucel (hydroxypropylcellulose) (HPC)
  T/C: 112 % of control
dose: 160.0 mg/kg/injection, vehicle: Klucel (hydroxypropylcellulose) (HPC)
  T/C: 110 % of control
dose: 320.0 mg/kg/injection, vehicle: Klucel (hydroxypropylcellulose) (HPC)
  T/C: 95 % of control
dose: 640.0 mg/kg/injection, vehicle: Klucel (hydroxypropylcellulose) (HPC)
  T/C: 111 % of control

## CCCCCCOC(CN(C)C)C(Cl)(Cl)Cl (centres undefined)
[10]
  T/C: 106 % of control
[11]
  T/C: 96 % of control
[12]
  T/C: 90 % of control
[13]
  T/C: 95 % of control
[14]
  T/C: 95 % of control
